We go through seven compounds from patent publication US12636366B2, “Ruthenium (II) complexes and conjugates thereof for use as photosensitizer agent in photodynamic therapy” (Paris Sciences et Lettres, priority 2019, dated 2026).

Like-named read-outs stand apart in the source and are kept apart here.

Data set [1] concerns human cervical carcinoma cells (HeLa). Kind of data set: Dark and light cytotoxicity, resazurin cell viability assay, HeLa. It counts as cell-based. The note with it: for PI (IC50 in the dark/IC50 upon light irradiation): 480 nm. The method, then: (§1) HeLa and CT-26 cell lines were cultured in DMEM media (Gibco, Life Technologies, USA) supplemented with 10% of fetal calf serum (Gibco). U87 and U373 cell lines were cultured in MEM media with addition of 1% of MEM NEAA (non-essential aminoacids) (Gibco) and 10% of fetal calf serum. RPE-1 cells were cultured in DMEM/F-12 (Gibco) supplemented with 10% of fetal calf serum. RPE-1 stable cells lines were cultured as RPE-1 cells with addition of geneticin (0.5 mg/ml) (Gibco). All cell lines were complemented with 100 U/ml penicillin-streptomycin mixture (Gibco), and maintained in humidified atmosphere at 37° C. and 5% of CO2.
(§2) Dark and light cytotoxicity of the Ru(II) complexes was assessed by fluorometric cell viability assay using resazurin (ACROS Organics). For dark and light cytotoxicity, cells were seeded in triplicates in 96 well plates at a density of 4000 cells per well in 100 μl, 24 h prior to treatment. The medium was then replaced with increasing concentration of the tested complexes and cells were incubated for 4 h. Medium was then replaced for fresh complete medium. Cells used for light cytotoxicity experiment were exposed to: 480 nm light for 10 min, 510 nm for 40 min, 540 for 60 min or 595 nm for 120 min in a 96-well plate using a LUMOS-BIO photoreactor (Atlas Photonics). Each well was individually illuminated with a LED at constant current. After irradiation cells were kept for another 44 h in the incubator and the medium was replaced by fresh complete medium containing resazurin (0.2 mg ml^−1 final concentration). After 4 h incubation at 37° C., the fluorescence signal of the resorufin product was read by SpectraMax M5 microplate reader (ex: 540 nm em: 590 nm). IC50 values were calculated using GraphPad Prism software.
(§3) The potential of the complexes to act as PDT PSs was determined on mouse colon carcinoma cells (CT-26), human glioblastoma cells (U87 and U373), human cervical carcinoma cells (HeLa) as well as non-cancerous retina pigmented epithelial cell line (RPE-1) according to the method described above. […] Ideally, a PDT PS should be non-toxic in the dark and highly toxic upon light activation. […] The toxicity of the compounds upon light irradiation (480 nm, 10 min, 3.21 J cm^−2) was then investigated.
(In general: Resazurin is reduced to fluorescent resorufin, in cell work by metabolically active cells.)

Data set [2] has as its system human glioblastoma cells (U87). Description: Dark and light cytotoxicity, resazurin cell viability assay, U87. It counts as cell-based. As to conditions: for PI (IC50 in the dark/IC50 upon light irradiation): U87, 480 nm. The method, then: as §1, §2, §3
The test system of data set [3] is non-cancerous retina pigmented epithelial cell line (RPE-1). Kind of data set: Dark and light cytotoxicity, resazurin cell viability assay, RPE-1. The note with it: for PI (IC50 in the dark/IC50 upon light irradiation): RPE-1, 480 nm. The format is cell-based. The method, then: as §1, §2, §3
Data set [4] can be described thus: Singlet oxygen measurement, indirect evaluation (RNO reporter absorbance). The note with it: indirect method, excitation at 450 nm, average of three, +-10%. The format is physicochemical. As to the method:
For the measurement in CH3CN: The samples were prepared in an air-saturated CH3CN solution containing the complex with an absorbance of 0.1 at the irradiation wavelength, N,N-dimethyl-4-nitrosoaniline aniline (RNO, 24 μM) and imidazole (12 mM). For the measurement in PBS buffer: The samples were prepared in an air-saturated PBS solution containing the complex with an absorbance of 0.1 at the irradiation wavelength, N,N-dimethyl-4-nitrosoaniline aniline (RNO, 20 μM) and histidine (10 mM). The samples were irradiated on 96 well plates with an Atlas Photonics LUMOS BIO irradiator for different times. The absorbance of the samples was measured during these time intervals with a SpectraMax M2 Microplate Reader (Molecular Devices). The difference in absorbance (A0-A) at 420 nm for the CH3CN solution or at 440 nm a PBS buffer solution was calculated and plotted against the irradiation times. From the plot the slope of the linear regression was calculated as well as the absorbance correction factor determined. The singlet oxygen quantum yields were calculated using the same formulas as used for the direct evaluation.
Additionally, the DFT calculations were able to characterize the lowest energy absorption band as a MLCT transition with a triplet state. With this in hand, a quantitative evaluation of singlet oxygen (^1O2) was performed to assess the potential of the PSs in PDT, by two methods: 1) direct by measurement of the luminescence of ^1O2, 2) indirect by measurement of the variation in absorbance of a reporter molecule, as described above. In the first method, the efficiency of the production of ^1O2 was assessed by measuring its phosphorescence at 1270 nm. Worthy of note, the possibility of detection in this experiment is affected by its environment as well as the used setup. With the setup used in this study, we could only detect Φ(^1O2) larger than 0.20 based on a low peak-to-noise ratio. In the second method (indirect method), ^1O2 is reacting with imidazole (in CH3CN) and histidine (in PBS buffer) to a trans-annular peroxide adduct. This can further quench the absorbance of the reporter molecule p-nitrosodimethyl aniline (RNO), which has been monitored by UV/VIS spectroscopy. In both methods, the ^1O2 production has been compared with a reference molecule, namely a solution of phenalenone in CH3CN (Φ(^1O2)phenaleone=0.95)^33 and a solution of [Ru(bipy)3]Cl2 in water Φ(^1O2)Ru(bipy)3Cl2=0.22)^31. […] In comparison, the values changed drastically in an aqueous solution. […] They have untypically low Φ(^1O2) values in CH3CN (0.22-0.35) for Ru(II) polypyridyl complexes. Subsequently, the ^1O2 production was also quite low in an aqueous environment.

The mark [5] stands for this setting: light 480 nm, 10 min, 3.21 J cm^−2, read-out: IC50 Light.
Setting [6] is: U87, light 480 nm, 10 min, 3.21 J cm^−2, read-out: IC50 Light.
Where [7] appears, read: RPE-1, dark, read-out: IC50 Dark.
[8] abbreviates: RPE-1, light 480 nm, 10 min, 3.21 J cm^−2, read-out: IC50 Light.

For `F[P-](F)(F)(F)(F)F.F[P-](F)(F)(F)(F)F.[Ru+2].c1ccc(-c2ccccn2)nc1.c1cnc2c(c1)ccc1cccnc12.c1cnc2c(c1)ccc1cccnc12` [Compound 1, (Bipyridine)bis(1,10-phenanthroline)ruthenium(II)hexafluorophosphate], the IC50 (usually the concentration at which inhibition is half-maximal) in data set [1] (dark, read-out: IC50 Dark) is above 100 µM; in data set [1] (setting [5]), above 100 µM; in data set [2] (U87, dark, read-out: IC50 Dark), above 100 µM; in data set [2] (setting [6]), 93.7 ± 2.5 µM; in data set [3] (setting [7]), above 100 µM; in data set [3] (setting [8]), above 100 µM. Also, the “PI (IC50 in the dark/IC50 upon light irradiation)” value (shortened to “PI”) in data set [2] (10 min) is reported as above 1. Further, the “Singlet oxygen quantum yield Φ(1O2), CH3CN Indirect” value in data set [4] is on record as 0.54. Also, the “Singlet oxygen quantum yield Φ(1O2), PBS indirect” value in data set [4] was 0.46.

As for “(2,2′-bipyridine-4,4′-carboxamide)bis(1,10-phenanthroline)ruthenium(II) hexafluorophosphate [Compound 4]”, the IC50 in data set [1] (dark, read-out: IC50 Dark) was above 100 µM; in data set [1] (setting [5]), above 100 µM; in data set [2] (U87, dark, read-out: IC50 Dark), above 100 µM; in data set [2] (setting [6]) it was above 100 µM; in data set [3] (setting [7]), above 100 µM; in data set [3] (setting [8]), above 100 µM. The “Singlet oxygen quantum yield Φ(1O2), CH3CN Indirect” value in data set [4] is listed as 0.59. Further, the “Singlet oxygen quantum yield Φ(1O2), PBS indirect” value in data set [4] is on record as 0.26.

In the case of “((E,E′)-4,4′-Bis(N,N′-dimethylaminovinyl)-2,2′-bipyridine)bis(1,10-phenanthroline)ruthenium(II) hexafluorophosphate [Compound 5]”, the IC50 in data set [1] (dark, read-out: IC50 Dark) is above 100 µM; in data set [1] (setting [5]), above 100 µM; in data set [2] (U87, dark, read-out: IC50 Dark), above 100 µM; in data set [2] (setting [6]), above 100 µM; in data set [3] (setting [7]) it was above 100 µM; in data set [3] (setting [8]) it was above 100 µM. Further, the “Singlet oxygen quantum yield Φ(1O2), CH3CN Indirect” value in data set [4] stood at 0.30. In data set [4], the “Singlet oxygen quantum yield Φ(1O2), PBS indirect” value is recorded as 0.21.

Take “(4,4′-Dimethyl-2,2′-bipyridine)bis(4,7-diphenyl-1,10-phenanthroline)ruthenium(II) hexafluorophosphate [Compound 6]”: the “PI” value is 22.2 in data set [1] (10 min), 42.5 in data set [2] (10 min) and 34.9 in data set [3] (10 min). The IC50 in data set [1] (dark, read-out: IC50 Dark) came out at 13.6 ± 1.3 µM; in data set [1] (setting [5]), 0.61 ± 0.06 µM; in data set [2] (U87, dark, read-out: IC50 Dark), 28.4 ± 1.97 µM; in data set [2] (setting [6]), 0.67 ± 0.13 µM; in data set [3] (setting [7]) it was 28.8 ± 0.94 µM; in data set [3] (setting [8]), 0.825 ± 0.03 µM. The “Singlet oxygen quantum yield Φ(1O2), CH3CN Indirect” value in data set [4] worked out at 0.63. In data set [4], the “Singlet oxygen quantum yield Φ(1O2), PBS indirect” value is on record as 0.03.

Regarding “(4,4′-Dibromo-2,2′-bipyridine)bis(1,10-phenanthroline)ruthenium(II) hexafluorophosphate [Compound 3]”, the half-maximal inhibitory concentration (IC50) in data set [1] (dark, read-out: IC50 Dark) was above 100 µM; in data set [1] (setting [5]) it was above 100 µM; in data set [2] (U87, dark, read-out: IC50 Dark), above 100 µM; in data set [2] (setting [6]), above 100 µM; in data set [3] (setting [7]) it was above 100 µM; in data set [3] (setting [8]), above 100 µM. In addition, in data set [4], the “Singlet oxygen quantum yield Φ(1O2), CH3CN Indirect” value is listed as 0.56. For the same compound, the “Singlet oxygen quantum yield Φ(1O2), PBS indirect” value in data set [4] was 0.16.

`Cc1ccnc(-c2cc(C)ccn2)c1.F[P-](F)(F)(F)(F)F.F[P-](F)(F)(F)(F)F.[Ru].c1cnc2c(c1)ccc1cccnc12.c1cnc2c(c1)ccc1cccnc12` [Compound 2, (4,4′-Dimethyl-2,2′-bipyridine)bis(1,10-phenanthroline)ruthenium(II)hexafluorophosphate]: the IC50 in data set [1] (dark, read-out: IC50 Dark) was above 100 µM; in data set [1] (setting [5]), above 100 µM; in data set [2] (U87, dark, read-out: IC50 Dark), above 100 µM; in data set [2] (setting [6]), 71.4 ± 7.54 µM; in data set [3] (setting [7]) it was above 100 µM; in data set [3] (setting [8]), above 100 µM. For the same compound, the “PI” value in data set [2] (10 min) is on record as above 1. Further, the “Singlet oxygen quantum yield Φ(1O2), CH3CN Indirect” value in data set [4] was 0.53. The “Singlet oxygen quantum yield Φ(1O2), PBS indirect” value in data set [4] amounted to 0.34.

In the case of “((E,E′)-4,4′-Bis(N,N′-dimethylaminovinyl)-2,2′-bipyridine)bis(4,7-diphenyl-1,10-phenanthroline)ruthenium(II) hexafluorophosphate [Compound 7]”, the figures for the “PI” value in data set [1] (10 min), in data set [2] (10 min) and in data set [3] (10 min) were above 6.5, above 12.7 and above 11.2, respectively. In addition, the half-inhibitory concentration (IC50) in data set [1] (dark, read-out: IC50 Dark) is above 100 µM; in data set [1] (setting [5]) it was 15.2 ± 1.29 µM; in data set [2] (U87, dark, read-out: IC50 Dark) it was above 100 µM; in data set [2] (setting [6]) it was 7.9 ± 0.54 µM; in data set [3] (setting [7]), above 100 µM; in data set [3] (setting [8]), 8.95 ± 0.5 µM. In data set [4], the “Singlet oxygen quantum yield Φ(1O2), CH3CN Indirect” value was 0.35. In addition, the “Singlet oxygen quantum yield Φ(1O2), PBS indirect” value in data set [4] turned out to be 0.07.
